In the supplement of paper PMC8671470:

These compounds were tested on HL-60 (assay: cell viability (% survival relative to DMSO control, bortezomib = 0%); higher = less cytotoxic). Details: 1 nM; 72 h.
Method in brief: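 Fifteen myeloid leukaemia cell lines were exposed to compounds at 1, 10, 100, 1000 or 10000 nM in 384-well plates for 72 h at 37 °C and 5% CO2. Viability was read by CellTiter-Glo luminescence and normalised, with vehicle as 100% and a 10 µM positive control as 0%. Values are percent survival averaged over duplicates.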
With `Cn1cc(C[C@@H](N)C(=O)O)c2ccccc21` [Indoximod] the cell viability was 102%.
In the case of `O=C(Oc1ccc([N+](=O)[O-])cc1)N1CCC(C(O)(c2ccc3c(c2)OCO3)c2ccc3c(c2)OCO3)CC1` [JZL184], the cell viability is reported as 96.9%.
`O=C1N[C@@H]2[C@@H](O)[C@@H](O)[C@H](O)[C@@H](CO)N2C1=O` [Kifunensine] showed a cell viability of 102%.
In the case of `CC(C)(CCCCCCCCCCC(C)(C)CC(=O)O)CC(=O)O` [MEDICA 16], the cell viability is reported as 109%.
`CC(C)c1ccc2c(c1)c(SC(C)(C)C)c(CC(C)(C)C(=O)O)n2Cc1ccc(Cl)cc1` [MK-886] showed a cell viability of 108%.
Work on `O=C(CCl)N(CCCNC(=O)C(F)(F)F)c1ccc([N+](=O)[O-])cc1` [ML175] yielded a cell viability of 104%.
Compound `CN(C)C(=N)NC(=N)N` [Metformin] has a cell viability of 98.2%.
`Cl.OC[C@H]1NC[C@H](O)[C@@H](O)[C@H]1O` [Migalastat] showed a cell viability of 92.9%.
`OCCN1C[C@H](O)[C@@H](O)[C@H](O)[C@H]1CO` [Miglitol] was tested, and the cell viability was 86.9%.
Work on `CCCCCCCNC=O` [N-Heptyl-Formamide] yielded a cell viability of 108%.
Work on `CC(C)(F)C[C@H](N[C@@H](c1ccc(-c2ccc(S(C)(=O)=O)cc2)cc1)C(F)(F)F)C(=O)NC1(C#N)CC1` [Odanacatib] yielded a cell viability of 143%.
`CNC(=C[N+](=O)[O-])NCCSCc1ccc(CN(C)C)o1` [Ranitidine] was tested, and the cell viability was 98.1%.
`C#CCN[C@@H]1CCc2ccccc21` [Rasagiline] gave a cell viability of 95.8%.
In the case of `NC(CCC(=O)NC(CSCc1ccc(Br)cc1)C(=O)NCC(=O)OC1CCCC1)C(=O)OC1CCCC1` (configuration not stated) [S-para-Bromobenzylglutathione cyclopentyl diester], the cell viability is reported as 97.3%.
With `COc1cc(C2Oc3cc(C4Oc5cc(O)cc(O)c5C(=O)C4O)ccc3OC2CO)ccc1O` (configuration not stated) [Silibinin] the cell viability was 91.9%.
Compound `Cn1c2cc(S(C)=O)sc2c2cnn(Cc3cccc(N)c3)c(=O)c21` (configuration not stated) [TEPP-46] has a cell viability of 104%.
`CCCCCCCCCCCCCCOc1ccc(C(=O)O)o1` [TOFA] gave a cell viability of 75.1%.
With `CN1CC(=O)N2[C@H](c3ccc4c(c3)OCO4)c3[nH]c4ccccc4c3C[C@@H]2C1=O` [Tadalafil] the cell viability was 106%.
With `Cl.NC1=CCCN1Cc1nc(O)nc(O)c1Cl` [Tipiracil] the cell viability was 98.8%.
`CCCC(CCC)C(=O)O` [Valproic acid] was tested, and the cell viability was 87.3%.
Work on `OCC(CO)N[C@H]1C[C@](O)(CO)[C@@H](O)[C@H](O)[C@H]1O` [Voglibose] yielded a cell viability of 119%.

Same assay, conditions: 10 nM; 72 h
With `Cn1cc(C[C@@H](N)C(=O)O)c2ccccc21` [Indoximod] the cell viability was 90.2%.
Work on `O=C(Oc1ccc([N+](=O)[O-])cc1)N1CCC(C(O)(c2ccc3c(c2)OCO3)c2ccc3c(c2)OCO3)CC1` [JZL184] yielded a cell viability of 98.8%.
With `O=C1N[C@@H]2[C@@H](O)[C@@H](O)[C@H](O)[C@@H](CO)N2C1=O` [Kifunensine] the cell viability was 90.6%.
Work on `CC(C)(CCCCCCCCCCC(C)(C)CC(=O)O)CC(=O)O` [MEDICA 16] yielded a cell viability of 114%.
`CC(C)c1ccc2c(c1)c(SC(C)(C)C)c(CC(C)(C)C(=O)O)n2Cc1ccc(Cl)cc1` [MK-886] showed a cell viability of 103%.
`O=C(CCl)N(CCCNC(=O)C(F)(F)F)c1ccc([N+](=O)[O-])cc1` [ML175] showed a cell viability of 111%.
In the case of `CN(C)C(=N)NC(=N)N` [Metformin], the cell viability is reported as 93.8%.
`Cl.OC[C@H]1NC[C@H](O)[C@@H](O)[C@H]1O` [Migalastat] was tested, and the cell viability was 86.1%.
`OCCN1C[C@H](O)[C@@H](O)[C@H](O)[C@H]1CO` [Miglitol] showed a cell viability of 95.7%.
With `CCCCCCCNC=O` [N-Heptyl-Formamide] the cell viability was 115%.
For `CC(C)(F)C[C@H](N[C@@H](c1ccc(-c2ccc(S(C)(=O)=O)cc2)cc1)C(F)(F)F)C(=O)NC1(C#N)CC1` [Odanacatib], the cell viability was 105%.
`CNC(=C[N+](=O)[O-])NCCSCc1ccc(CN(C)C)o1` [Ranitidine] was tested, and the cell viability was 156%.
With `C#CCN[C@@H]1CCc2ccccc21` [Rasagiline] the cell viability was 86.6%.
In the case of `NC(CCC(=O)NC(CSCc1ccc(Br)cc1)C(=O)NCC(=O)OC1CCCC1)C(=O)OC1CCCC1` (configuration not stated) [S-para-Bromobenzylglutathione cyclopentyl diester], the cell viability is reported as 92.7%.
With `COc1cc(C2Oc3cc(C4Oc5cc(O)cc(O)c5C(=O)C4O)ccc3OC2CO)ccc1O` (configuration not stated) [Silibinin] the cell viability was 92.9%.
`Cn1c2cc(S(C)=O)sc2c2cnn(Cc3cccc(N)c3)c(=O)c21` (configuration not stated) [TEPP-46] showed a cell viability of 81.9%.
`CCCCCCCCCCCCCCOc1ccc(C(=O)O)o1` [TOFA] gave a cell viability of 83.8%.
With `CN1CC(=O)N2[C@H](c3ccc4c(c3)OCO4)c3[nH]c4ccccc4c3C[C@@H]2C1=O` [Tadalafil] the cell viability was 75.2%.
In the case of `Cl.NC1=CCCN1Cc1nc(O)nc(O)c1Cl` [Tipiracil], the cell viability is reported as 97.2%.
`CCCC(CCC)C(=O)O` [Valproic acid] was tested, and the cell viability was 96.2%.
With `OCC(CO)N[C@H]1C[C@](O)(CO)[C@@H](O)[C@H](O)[C@H]1O` [Voglibose] the cell viability was 99.5%.

Same assay, conditions: 100 nM; 72 h
`Cn1cc(C[C@@H](N)C(=O)O)c2ccccc21` [Indoximod] showed a cell viability of 116%.
`O=C(Oc1ccc([N+](=O)[O-])cc1)N1CCC(C(O)(c2ccc3c(c2)OCO3)c2ccc3c(c2)OCO3)CC1` [JZL184] was tested, and the cell viability was 105%.
`O=C1N[C@@H]2[C@@H](O)[C@@H](O)[C@H](O)[C@@H](CO)N2C1=O` [Kifunensine] gave a cell viability of 120%.
In the case of `CC(C)(CCCCCCCCCCC(C)(C)CC(=O)O)CC(=O)O` [MEDICA 16], the cell viability is reported as 98%.
Compound `CC(C)c1ccc2c(c1)c(SC(C)(C)C)c(CC(C)(C)C(=O)O)n2Cc1ccc(Cl)cc1` [MK-886] has a cell viability of 94.8%.
`O=C(CCl)N(CCCNC(=O)C(F)(F)F)c1ccc([N+](=O)[O-])cc1` [ML175] showed a cell viability of 110%.
For `CN(C)C(=N)NC(=N)N` [Metformin], the cell viability was 109%.
Compound `Cl.OC[C@H]1NC[C@H](O)[C@@H](O)[C@H]1O` [Migalastat] has a cell viability of 113%.
With `OCCN1C[C@H](O)[C@@H](O)[C@H](O)[C@H]1CO` [Miglitol] the cell viability was 93.1%.
Work on `CCCCCCCNC=O` [N-Heptyl-Formamide] yielded a cell viability of 95.3%.
